Experimental data as given in US20200354426A1 (MEDIMMUNE LIMITED, priority 2016, published 2020).
pEC50: −log10 of the molar value. Several values for one entry are separate records, joined by “and”; a condition that tells them apart may be missing. Equal entries are not always repeated. Where two headings read alike, the source gives them in different places. Numbered stars: 1 amine (or outer) side, 2 acyl side, 3 side chain; on linkers, the order of the positions; unused ones are H or OH. Side chains are listed from the residue outwards. Peptide text beside a SMILES is read from it. * marks the point of attachment. γGlu = O=C(O)[C@H](CCC(=O)[*:2])N[*:1]; Palmitoyl = CCCCCCCCCCCCCCCC(=O)*

Experiments:
Experiment in all cases: cAMP activity assay in assay medium (assay 1)
Type in all cases: cell-based
Settings in all cases: assay medium
Human GLP1R = Human GLP1R (Homo sapiens, UniProt P43220); design: expressed in transfected cells
Sequence of Human GLP1R (P43220 24-463): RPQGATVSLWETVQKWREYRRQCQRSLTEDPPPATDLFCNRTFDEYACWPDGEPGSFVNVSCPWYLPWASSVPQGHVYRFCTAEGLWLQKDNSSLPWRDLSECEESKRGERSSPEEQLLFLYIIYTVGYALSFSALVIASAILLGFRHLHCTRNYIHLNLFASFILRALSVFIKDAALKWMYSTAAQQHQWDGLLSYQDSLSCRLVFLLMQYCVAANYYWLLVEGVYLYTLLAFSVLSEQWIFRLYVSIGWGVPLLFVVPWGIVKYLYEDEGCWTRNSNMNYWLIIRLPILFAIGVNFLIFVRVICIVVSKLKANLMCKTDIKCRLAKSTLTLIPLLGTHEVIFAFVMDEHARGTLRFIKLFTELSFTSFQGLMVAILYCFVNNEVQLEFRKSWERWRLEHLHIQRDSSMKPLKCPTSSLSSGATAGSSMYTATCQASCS
Description: (§1) Biological Activity of Peptides in Cell-Based cAMP Activity Assay (Assay 1):
(§2) All sample dilutions were made in duplicate.

Human GlucR = target: T1, Human GlucR (Homo sapiens, UniProt P47871)
T1 construct: expressed in transfected cells
T1 sequence (P47871 26-477): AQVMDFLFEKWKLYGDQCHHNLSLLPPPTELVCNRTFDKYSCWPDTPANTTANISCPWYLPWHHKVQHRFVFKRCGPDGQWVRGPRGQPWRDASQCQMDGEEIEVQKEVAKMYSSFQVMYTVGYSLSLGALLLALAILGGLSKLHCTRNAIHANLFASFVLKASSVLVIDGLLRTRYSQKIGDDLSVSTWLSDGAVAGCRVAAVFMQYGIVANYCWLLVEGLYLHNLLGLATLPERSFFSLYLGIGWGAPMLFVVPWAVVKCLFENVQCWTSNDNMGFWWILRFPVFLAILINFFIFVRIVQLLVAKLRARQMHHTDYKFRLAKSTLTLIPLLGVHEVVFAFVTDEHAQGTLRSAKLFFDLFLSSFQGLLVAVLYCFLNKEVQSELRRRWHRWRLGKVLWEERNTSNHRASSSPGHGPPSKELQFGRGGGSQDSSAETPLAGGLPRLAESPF
Description: as §1, §2

Human GIPr = target: T2, Human GIPr (Homo sapiens, UniProt P48546)
T2 construct: expressed in transfected cells
T2 sequence (P48546 22-466): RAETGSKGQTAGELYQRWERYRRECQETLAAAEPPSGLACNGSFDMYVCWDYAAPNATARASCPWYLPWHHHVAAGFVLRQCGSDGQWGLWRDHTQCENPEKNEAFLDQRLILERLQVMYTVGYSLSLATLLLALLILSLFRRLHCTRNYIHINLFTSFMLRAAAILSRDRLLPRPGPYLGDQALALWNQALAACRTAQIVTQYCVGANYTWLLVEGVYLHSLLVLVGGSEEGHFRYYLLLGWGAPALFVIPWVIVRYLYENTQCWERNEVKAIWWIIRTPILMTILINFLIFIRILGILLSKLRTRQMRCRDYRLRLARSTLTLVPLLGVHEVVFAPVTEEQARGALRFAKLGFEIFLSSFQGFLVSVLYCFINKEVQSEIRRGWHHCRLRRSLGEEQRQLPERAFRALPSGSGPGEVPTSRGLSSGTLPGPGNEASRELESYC
Description: as §1, §2

Compound | pEC50 (Human GLP1R; Table 3, C-terminal acid peptides, read-out: Human GLP1R EC50) | pEC50 (Human GlucR; Table 3, C-terminal acid peptides, read-out: Human GlucR EC50) | pEC50 (Human GIPr; Table 3, C-terminal acid peptides, read-out: Human GIPr EC50) | pEC50 (Human GlucR; Table 4, read-out: hGlucR EC50) | pEC50 (Human GIPr; Table 4, read-out: hGIPR EC50) | pEC50 (Human GLP1R; Table 4, read-out: hGLP1R EC50)
CCCCCCCCCCCCCCCC(=O)N[C@@H](CCC(=O)NCCCC[C@H](NC(=O)[C@H](CC(=O)O)NC(=O)[C@H](CO)NC(=O)[C@@H](NC(=O)[C@H](Cc1ccccc1)NC(=O)[C@@H](NC(=O)CNC(=O)[C@H](CCC(N)=O)NC(=O)[C@H](CO)NC(=O)[C@@H](N)Cc1c[nH]cn1)[C@@H](C)O)[C@@H](C)O)C(=O)N[C@@H](CO)C(=O)N[C@@H](CCCCN)C(=O)N[C@@H](Cc1ccc(O)cc1)C(=O)N[C@@H](CC(C)C)C(=O)N[C@@H](CCC(=O)O)C(=O)NCC(=O)N[C@@H](CCC(N)=O)C(=O)N[C@@H](C)C(=O)N[C@@H](C)C(=O)N[C@@H](CCCCN)C(=O)N[C@@H](CCC(=O)O)C(=O)N[C@@H](Cc1ccccc1)C(=O)N[C@H](C(=O)N[C@@H](C)C(=O)N[C@@H](Cc1c[nH]c2ccccc12)C(=O)N[C@@H](CC(C)C)C(=O)N[C@@H](CCC(=O)O)C(=O)N[C@@H](CCCCN)C(=O)NCC(=O)N[C@@H](CCCNC(=N)N)C(=O)O)[C@@H](C)CC)C(=O)O [Peptide G934] | 10.74 | 11.20 | 8.44 |  |  | 
CCCCCCCCCCCCCCCC(=O)N[C@@H](CCC(=O)NCCCC[C@H](NC(=O)[C@H](CO)NC(=O)[C@H](CC(=O)O)NC(=O)[C@H](CC(C)C)NC(=O)[C@H](Cc1ccc(O)cc1)NC(=O)[C@H](CCCCN)NC(=O)[C@H](CO)NC(=O)[C@H](Cc1ccc(O)cc1)NC(=O)[C@H](CC(=O)O)NC(=O)[C@H](CO)NC(=O)[C@@H](NC(=O)[C@H](Cc1ccccc1)NC(=O)[C@@H](NC(=O)CNC(=O)[C@H](CCC(N)=O)NC(=O)[C@H](CO)NC(=O)[C@@H](N)Cc1c[nH]cn1)[C@@H](C)O)[C@@H](C)O)C(=O)N[C@@H](CCCNC(=N)N)C(=O)N[C@@H](C)C(=O)N[C@@H](CCC(=O)O)C(=O)N[C@@H](CC(=O)O)C(=O)N[C@@H](Cc1ccccc1)C(=O)N[C@H](C(=O)N[C@@H](CCC(N)=O)C(=O)N[C@@H](Cc1c[nH]c2ccccc12)C(=O)N[C@@H](CC(C)C)C(=O)N[C@H](C(=O)N[C@@H](C)C(=O)NCC(=O)NCC(N)=O)C(C)C)C(C)C)C(=O)O [g599] |  |  |  | 10.02 and 10.16 | 6.95 | 
CCCCCCCCCCCCCCCC(=O)N[C@@H](CCC(=O)NCCCC[C@H](NC(=O)[C@H](Cc1ccc(O)cc1)NC(=O)[C@H](CCCCN)NC(=O)[C@H](CO)NC(=O)[C@H](Cc1ccc(O)cc1)NC(=O)[C@H](CC(=O)O)NC(=O)[C@H](CO)NC(=O)[C@@H](NC(=O)[C@H](Cc1ccccc1)NC(=O)[C@@H](NC(=O)CNC(=O)[C@H](CCC(N)=O)NC(=O)[C@H](CO)NC(=O)[C@@H](N)Cc1c[nH]cn1)[C@@H](C)O)[C@@H](C)O)C(=O)N[C@@H](CC(=O)O)C(=O)N[C@@H](CO)C(=O)N[C@@H](CCCNC(=N)N)C(=O)N[C@@H](CCCNC(=N)N)C(=O)N[C@@H](C)C(=O)N[C@@H](CCC(N)=O)C(=O)N[C@@H](CC(=O)O)C(=O)N[C@@H](Cc1ccccc1)C(=O)N[C@H](C(=O)N[C@@H](CCC(N)=O)C(=O)N[C@@H](Cc1c[nH]c2ccccc12)C(=O)N[C@@H](CC(C)C)C(=O)N[C@@H](CCC(=O)O)C(=O)N[C@@H](C)C(=O)NCC(=O)NCC(N)=O)C(C)C)C(=O)O [g601] (H-HSQGTFTSDYSKYK([γGlu-Palmitoyl])DSRRAQDFVQWLEAGG-NH2; N-terminus assumed) |  |  |  |  | 7.13 | 10.40
CCCCCCCCCCCCCCCC(=O)NCCCCCC(=O)NCCCC[C@H](NC(=O)[C@H](CO)NC(=O)[C@H](CC(=O)O)NC(=O)[C@H](CC(C)C)NC(=O)[C@H](Cc1ccc(O)cc1)NC(=O)[C@H](CCC(=O)O)NC(=O)[C@H](CO)NC(=O)[C@H](Cc1ccc(O)cc1)NC(=O)[C@H](CC(=O)O)NC(=O)[C@H](CO)NC(=O)[C@@H](NC(=O)[C@H](Cc1ccccc1)NC(=O)[C@@H](NC(=O)CNC(=O)[C@H](CCC(N)=O)NC(=O)CNC(=O)[C@@H](N)Cc1c[nH]cn1)[C@@H](C)O)[C@@H](C)O)C(=O)N[C@@H](CCCNC(=N)N)C(=O)N[C@@H](C)C(=O)N[C@@H](C)C(=O)N[C@@H](CC(=O)O)C(=O)N[C@@H](Cc1ccccc1)C(=O)N[C@H](C(=O)N[C@@H](C)C(=O)N[C@@H](Cc1c[nH]c2ccccc12)C(=O)N[C@@H](CC(C)C)C(=O)N[C@@H](CCC(=O)O)C(=O)N[C@@H](CCCNC(=N)N)C(=O)NCC(=O)NCC(N)=O)C(C)C [g683] |  |  |  |  | 6.90 | 10.80
CCCCCCCCCCCCCCCC(=O)N[C@@H](CCC(=O)NCCCC[C@H](NC(=O)[C@H](CC(=O)O)NC(=O)[C@H](CO)NC(=O)[C@@H](NC(=O)[C@H](Cc1ccccc1)NC(=O)[C@@H](NC(=O)CNC(=O)[C@H](CCC(N)=O)NC(=O)[C@H](CO)NC(=O)[C@@H](N)Cc1c[nH]cn1)[C@@H](C)O)[C@@H](C)O)C(=O)N[C@@H](CO)C(=O)N[C@@H](CCCCN)C(=O)N[C@@H](Cc1ccc(O)cc1)C(=O)N[C@@H](CC(C)C)C(=O)N[C@@H](CC(=O)O)C(=O)N[C@@H](CO)C(=O)N[C@@H](CCCNC(=N)N)C(=O)N[C@@H](CCCNC(=N)N)C(=O)N[C@@H](C)C(=O)N[C@@H](CCC(N)=O)C(=O)N[C@@H](CC(=O)O)C(=O)N[C@@H](Cc1ccccc1)C(=O)N[C@H](C(=O)N[C@@H](CCC(N)=O)C(=O)N[C@@H](Cc1c[nH]c2ccccc12)C(=O)N[C@@H](CC(C)C)C(=O)N[C@@H](CCC(=O)O)C(=O)N[C@@H](C)C(=O)NCC(=O)NCC(N)=O)C(C)C)C(=O)O [g717] (H-HSQGTFTSDK([γGlu-Palmitoyl])SKYLDSRRAQDFVQWLEAGG-NH2; N-terminus assumed) |  |  |  |  | 8.83 | 11.24
CCCCCCCCCCCCCCCC(=O)N[C@@H](CCC(=O)NCCCC[C@H](NC(=O)[C@H](Cc1ccc(O)cc1)NC(=O)[C@H](CCCCN)NC(=O)[C@H](CO)NC(=O)[C@H](Cc1ccc(O)cc1)NC(=O)[C@H](CC(=O)O)NC(=O)[C@H](CO)NC(=O)[C@@H](NC(=O)[C@H](Cc1ccccc1)NC(=O)[C@@H](NC(=O)CNC(=O)[C@H](CCC(N)=O)NC(=O)[C@H](CO)NC(=O)[C@@H](N)Cc1c[nH]cn1)[C@@H](C)O)[C@@H](C)O)C(=O)N[C@@H](CC(=O)O)C(=O)N[C@@H](CO)C(=O)N[C@@H](CCCNC(=N)N)C(=O)N[C@@H](CCCNC(=N)N)C(=O)N[C@@H](C)C(=O)N[C@@H](CCCNC(=N)N)C(=O)N[C@@H](CC(=O)O)C(=O)N[C@@H](Cc1ccccc1)C(=O)N[C@H](C(=O)N[C@@H](C)C(=O)N[C@@H](Cc1c[nH]c2ccccc12)C(=O)N[C@@H](CC(C)C)C(=O)N[C@@H](CCC(=O)O)C(=O)N[C@@H](C)C(=O)NCC(=O)NCC(N)=O)C(C)C)C(=O)O [g780] (H-HSQGTFTSDYSKYK([γGlu-Palmitoyl])DSRRARDFVAWLEAGG-NH2; N-terminus assumed) |  |  |  |  | 7.19 | 10.92
CCCCCCCCCCCCCCCC(=O)N[C@@H](CCC(=O)NCCCC[C@H](NC(=O)[C@H](CC(=O)O)NC(=O)[C@H](CO)NC(=O)[C@@H](NC(=O)[C@H](Cc1ccccc1)NC(=O)[C@@H](NC(=O)CNC(=O)[C@H](CCC(N)=O)NC(=O)[C@H](CO)NC(=O)[C@@H](N)Cc1c[nH]cn1)[C@@H](C)O)[C@@H](C)O)C(=O)N[C@@H](CO)C(=O)N[C@@H](CCCCN)C(=O)N[C@@H](Cc1ccc(O)cc1)C(=O)N[C@@H](CC(C)C)C(=O)N[C@@H](CC(=O)O)C(=O)N[C@@H](CO)C(=O)N[C@@H](CCC(=O)O)C(=O)N[C@@H](CCCNC(=N)N)C(=O)N[C@@H](C)C(=O)N[C@@H](CCCNC(=N)N)C(=O)N[C@@H](CC(=O)O)C(=O)N[C@@H](Cc1ccccc1)C(=O)N[C@H](C(=O)N[C@@H](C)C(=O)N[C@@H](Cc1c[nH]c2ccccc12)C(=O)N[C@@H](CC(C)C)C(=O)N[C@@H](CCC(=O)O)C(=O)N[C@@H](C)C(=O)NCC(=O)NCC(N)=O)C(C)C)C(=O)O [g798] (H-HSQGTFTSDK([γGlu-Palmitoyl])SKYLDSERARDFVAWLEAGG-NH2; N-terminus assumed) |  |  |  |  | 8.82 | 11.04
CCCCCCCCCCCCCCCC(=O)N[C@@H](CCC(=O)NCCCC[C@H](NC(=O)[C@H](CC(=O)O)NC(=O)[C@H](CO)NC(=O)[C@@H](NC(=O)[C@H](Cc1ccccc1)NC(=O)[C@@H](NC(=O)CNC(=O)[C@H](CCC(N)=O)NC(=O)[C@H](CO)NC(=O)[C@@H](N)Cc1c[nH]cn1)[C@@H](C)O)[C@@H](C)O)C(=O)N[C@@H](CO)C(=O)N[C@@H](CCCNC(=N)N)C(=O)N[C@@H](Cc1ccc(O)cc1)C(=O)N[C@@H](CC(C)C)C(=O)N[C@@H](CC(=O)O)C(=O)N[C@@H](CO)C(=O)N[C@@H](CCC(=O)O)C(=O)N[C@@H](CCCNC(=N)N)C(=O)N[C@@H](C)C(=O)N[C@@H](CCCNC(=N)N)C(=O)N[C@@H](CC(=O)O)C(=O)N[C@@H](Cc1ccccc1)C(=O)N[C@H](C(=O)N[C@@H](C)C(=O)N[C@@H](Cc1c[nH]c2ccccc12)C(=O)N[C@@H](CC(C)C)C(=O)N[C@@H](CCC(=O)O)C(=O)N[C@@H](C)C(=O)NCC(=O)NCC(N)=O)C(C)C)C(=O)O [g848] (H-HSQGTFTSDK([γGlu-Palmitoyl])SRYLDSERARDFVAWLEAGG-NH2; N-terminus assumed) |  |  |  |  | 8.56 | 11.03
